This experiment addresses T1, ferroportin (Fpn) (Mus musculus, UniProt Q9JHI9).
T1 construct: host or cells: J774 mouse macrophage cell line, Fe(III)-NTA induced
T1 sequence (Q9JHI9 1-570): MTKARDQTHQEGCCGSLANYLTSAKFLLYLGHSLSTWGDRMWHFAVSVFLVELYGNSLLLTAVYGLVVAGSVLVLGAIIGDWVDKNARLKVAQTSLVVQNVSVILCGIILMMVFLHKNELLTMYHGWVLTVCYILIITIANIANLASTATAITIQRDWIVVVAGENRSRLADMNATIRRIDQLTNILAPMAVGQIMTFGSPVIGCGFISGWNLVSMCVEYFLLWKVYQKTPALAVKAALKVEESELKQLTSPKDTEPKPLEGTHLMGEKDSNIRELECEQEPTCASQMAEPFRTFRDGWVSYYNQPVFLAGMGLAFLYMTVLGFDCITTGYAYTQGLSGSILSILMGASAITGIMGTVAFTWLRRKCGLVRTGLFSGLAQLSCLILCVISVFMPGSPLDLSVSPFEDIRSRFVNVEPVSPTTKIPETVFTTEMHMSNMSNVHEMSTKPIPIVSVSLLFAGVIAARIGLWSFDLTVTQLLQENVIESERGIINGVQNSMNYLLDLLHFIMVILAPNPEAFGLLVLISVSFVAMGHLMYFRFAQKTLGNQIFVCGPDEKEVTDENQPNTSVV
Put plainly: Hepcidin Internalization Assay (J774). Type of experiment: cell-based. The following applies: average of multiple measurements; inhibition of TMR-hepcidin (25 nM) internalization into J774 cells; read-out: J774 IC50. The text has this:
This cellular assay allows quantification of the binding of hepcidin to ferroportin (Fpn) through microscopic detection of internalization of a fluorescently labeled hepcidin into J774 cells. […] Binding of hepcidin to Fpn triggers internalization and degradation of both hepcidin and Fpn. However, the TMR (6-carboxytetramethylrhodamine) fluorophore attached to hepcidin remains associated with the cell after degradation of the hepcidin peptide backbone. Therefore, microscopic detection of ceH associated TMR fluorescence is a measure of hepcidin binding to Fpn and internalization of hepcidin and Fpn. If TMR-hepcidin is prevented from binding to Fpn, cellular TMR fluorescence remains low (Dürrenberger et al, 2013). The effect of small molecular weight Fpn inhibitor compounds in this assay was evaluated in vitro as described below.
J774 cells, harvested from ca. 80% confluent cultures, were plated at 8×10^5 cells/ml in complete medium (DMEM, 10% FBS, 1% Penicillin-Streptomycin) containing 200 μM Fe(III)NTA (nitrilotriacetic acid), 100 μl per well of 96 well MicroClear plates (Greiner; Cat. 655090) and grown at 37° C. with 5% CO2. After overnight incubation, cells were washed 3 times with pre-warmed DMEM w/o phenol red, 30 μl/well of DMEM w/o phenol red was added after the final wash and 10 μl/well of dilution series of test compounds were added in triplicates. […] Cells were incubated in a total volume of 50 μl at 37° C. with 5% CO2 for 2 hours, then Hoechst 33342 dye was added to a final concentration of 0.5 μg/ml to stain nuclei and further incubated for 10 min. at 37° C. with 5% CO2. Cells were washed 3 times with PBS and fixed in 100 μl of 4% paraformaldehyde in PBS for 15 min. at room temperature. After removal of the paraformaldehyde solution, cells were washed 3 times with PBS leaving 100 μl per well and the plates were sealed with foil plate seal. TMR (530-550 nm excitation/575-625 nm emission/400 ms exposure time) and Hoechst 33342 (360-370 nm excitation/420-460 nm emission/10 ms exposure time) fluorescence images were acquired using a ScanR plate imager (Olympus) with a 20× high NA objective. Four pictures were acquired per well and fluorescence channel covering ca. 1500 cells per well. The acquired image data was analysed with the ScanR image analysis software. Image analysis included detection of nuclei (Hoechst 33342 fluorescence), identification of cell-associated regions, application of a virtual channel and thresholding for rolling-ball-type background reduction, followed by application of the Sum(Mean) algorithm to measure the TMR fluorescence associated with cells as a quantitative measure for internalized TMR-hepcidin. IC50 values were calculated with the Sum(Mean) raw data using “log(inhibitor) vs. response” curve fitting of Prism 5 software (GraphPad Software Inc., version 5.02).
As usually defined, the IC50 is the concentration at which inhibition is half-maximal. In the case of `O=C(NCc1cccnn1)c1nc(CCNCCc2nc3ccccc3[nH]2)sc1Cl` [Example 183], the IC50 amounted to 131 nM. In the case of `O=C(c1csc(CCNCc2nc3ccccc3[nH]2)n1)N1CCOCC1` [Example 18] it was 8700 nM; in that of `O=C(NCc1ncccc1Cl)c1csc(C2CN(CCc3nc4ccccc4[nH]3)C2)n1` [Example 195], 210 nM; in that of `O=C(NCc1ncccc1F)[C@@H]1CCN(CCNCc2nc3ccccc3[nH]2)C1` [compound 202], 5000 nM. `O=C(NCc1ccccc1)c1csc(CCNC(=O)c2ncc[nH]2)n1` [Example 8]: the 50% inhibitory concentration (IC50) amounted to 42900 nM.

Take `O=C(NCc1ncccc1F)c1cn(CCNCc2nc3ccccc3[nH]2)nc1C(F)(F)F` [Example 156]: the IC50 is 2460 nM. As for `COc1cccc2[nH]c(CCNCCc3nc(C(=O)NCc4ncccc4F)co3)nc12` [Example 227], the half-inhibitory concentration (IC50) is 130 nM. Take `O=C(NCc1ccccc1)c1csc(CCNCc2n[nH]c3ccccc23)n1` [Example 5]: the IC50 was 10400 nM. Consider `Cc1sc(CCNCCc2nc3ccccc3[nH]2)nc1C(=O)NCc1ncccc1F` [Example 165], for which the concentration for half-maximal inhibition (IC50) turned out to be 100 nM. With `O=C(NCc1ncccc1F)c1csc(CCNCc2nc3c(F)cccc3[nH]2)n1` [Example 274], the concentration for half-maximal inhibition (IC50) stood at 145 nM.

As to `Cc1nn(CCNCc2nc3ccccc3[nH]2)c(C)c1C(=O)NCc1ncccc1F` [Example 142], the concentration for half-maximal inhibition (IC50) is 21600 nM. In the case of `CC(=O)N(CCc1nc(C(=O)NCc2ccccc2)cs1)Cc1nccn1C` [Example 4], the 50% inhibitory concentration (IC50) is 15400 nM. Regarding `Cn1nc(CNCCc2nc3ccccc3[nH]2)cc1C(=O)NCc1ncccc1F` [Example 220], the 50% inhibitory concentration (IC50) was 290 nM. In the case of `CCCCN(CCc1nc2ccccc2[nH]1)CCc1nc(C(=O)NCc2ncccc2F)cs1` [Example 157] it was 717 nM.

Take `O=C(NCc1ccccn1)c1nc(CCNCc2nc3ccccc3[nH]2)sc1Cl` [Example 160]: the 50% inhibitory concentration (IC50) amounted to 256 nM. Under `CC(C)(CNCCc1nc(C(=O)NCc2ncccc2F)cs1)c1nc2ccccc2[nH]1` [Example 199] stands 780 nM; under `O=C(Cc1nc2ccccc2[nH]1)NCCc1nc(C(=O)NCc2ncccc2F)cs1` [Example 113], above 25000 nM.

Take `O=C(NCc1ncccc1F)c1nc(CNCCc2nc3ccccc3[nH]2)cs1` [Example 205]: the IC50 was found to be 370 nM. Under `O=C(NCc1ncccc1F)c1nc(C2CN(CCc3nc4ccccc4[nH]3)C2)sc1Cl` [Example 209] stands 379 nM. Take `O=C(NCc1ncccc1F)c1csc(CCN(CCc2nc3ccccc3[nH]2)CC2CC2)n1` [Example 148]: the IC50 amounted to 2080 nM. On to `O=C(NCc1ncccc1F)c1coc(CCNCCc2nc3c(F)ccc(Cl)c3[nH]2)n1` [Example 247], for which the half-maximal inhibitory concentration (IC50) was found to be 82 nM. Consider `O=C(NCc1ncccc1F)c1nc(CCNCc2nc3ccccc3[nH]2)sc1C(F)(F)F` [Example 176], for which the half-inhibitory concentration (IC50) came out at 957 nM. As to `O=C(NCc1ncccc1F)c1csc(CCNCc2nc3ccc(F)cc3[nH]2)n1` [Example 114], the 50% inhibitory concentration (IC50) is 118 nM. Take `Cc1cnc(CNC(=O)c2nc(CCNCCc3nc4ccccc4[nH]3)sc2Cl)nc1` [Example 182]: the IC50 amounted to 989 nM.

Regarding `O=C(NCc1ncccc1F)c1coc(CCNCc2nc3c(F)cccc3[nH]2)n1` [Example 253], the IC50 stood at 226 nM. As to `O=C(NCc1ncccc1F)c1coc(CCNCCc2nc3c(F)c(F)ccc3[nH]2)n1` [Example 257], the IC50 was found to be 35 nM.

For `O=C(NCc1cccnn1)c1coc(C2CN(CCc3nc4ccccc4[nH]3)C2)n1` [Example 244], the half-inhibitory concentration (IC50) came out at 90 nM. In the case of `O=C(NCc1ncccc1F)c1coc(C2CN(CCc3nc4c(C(F)(F)F)cccc4[nH]3)C2)n1` [Example 273], the IC50 is 228 nM.

Consider `NC(=O)c1csc(CCNCc2nc3ccccc3[nH]2)n1` [compound 23], for which the IC50 is 15800 nM. With `O=C(NCc1ncccn1)c1nc(CCNCc2nc3ccccc3[nH]2)sc1Cl` [Example 175], the concentration for half-maximal inhibition (IC50) came to 1020 nM.

As to `O=C(NCc1ncccc1F)c1coc(CCNCCc2nc3c(F)ccc(F)c3[nH]2)n1` [Example 251], the IC50 was determined as 62 nM.

As for `CC(C)(Cc1nc(C(=O)NCc2ncccc2F)cs1)NCc1nc2ccccc2[nH]1` [Example 231], the IC50 stood at 5200 nM. For `O=C(NCc1ccccc1)c1csc(CCNCc2nccs2)n1` [Example 3], the IC50 stood at 16600 nM. With `NCCCN(CCc1nc2ccccc2[nH]1)CCc1nc(C(=O)NCc2ncccc2F)cs1` [Example 163], the IC50 was found to be 828 nM.

With `Cc1sc(CCNCc2nc3ccccc3[nH]2)nc1C(=O)NCc1ncccc1F` [Example 164], the IC50 was found to be 343 nM. Regarding `O=C(NCc1ccccn1)c1nc(CCNCCc2nc3ccccc3[nH]2)sc1Cl` [Example 184], the half-inhibitory concentration (IC50) was 63 nM. For the molecule `Cc1cnc(CNC(=O)c2csc(CCNCCc3nc4ccccc4[nH]3)n2)nc1` [Example 155], the IC50 was 347 nM. On to `O=C(NCc1ncccn1)c1csc(CCNCCc2nc3ccccc3[nH]2)n1` [Example 129], for which the half-inhibitory concentration (IC50) was determined as 353 nM. In the case of `O=C(NCc1ccccn1)c1coc(C2CN(CCc3nc4c(F)cccc4[nH]3)C2)n1` [Example 258], the IC50 came out at 152 nM. With `O=C(NCc1ccccn1)c1coc(CCNCCc2nc3c(F)cccc3[nH]2)n1` [Example 236], the IC50 came to 150 nM.

As for `Cc1ccc(CNC(=O)c2csc(CCNCCc3nc4ccccc4[nH]3)n2)nn1` [Example 174], the 50% inhibitory concentration (IC50) was 141 nM. As to `Cc1sc(CCNCCc2nc3ccccc3[nH]2)nc1C(=O)NCc1ncccn1` [Example 188], the IC50 came out at 1160 nM. With `O=C(NCc1ncccc1F)c1nc(CCNCCc2nc3ccccc3[nH]2)sc1C(F)(F)F` [Example 186], the IC50 is 300 nM. Under `O=C(NCc1ncccc1F)c1cnn(C2CCN(CCc3nc4ccccc4[nH]3)CC2)c1` [Example 198] stands 27000 nM.

With `O=C(NCc1ncccc1F)c1cnn(CCNCc2nc3ccccc3[nH]2)c1` [Example 145], the IC50 was 385 nM. On to `O=C(NCc1ncccc1F)c1csc(CCNCc2nc3ccccc3o2)n1` [Example 115], for which the 50% inhibitory concentration (IC50) was above 25000 nM. For the molecule `O=C(NCc1ccccn1)c1cnn(CCNCCc2nc3ccccc3[nH]2)c1` [Example 109], the IC50 was found to be 76 nM. In the case of `O=C(NC1CCc2cccnc21)c1cnn(CCNCCc2nc3ccccc3[nH]2)c1` (centres unmarked) [Example 131], the IC50 was determined as 90 nM. For `O=C(NCc1ccccc1)c1csc(CCNC(=O)c2nc3ccccc3[nH]2)n1` [Example 7], the IC50 worked out at 14200 nM. In the case of `O=C(NCc1ccccn1)c1nc(CCN2CCc3nc4ccccc4n3C2)sc1Cl` [Example 189], the concentration for half-maximal inhibition (IC50) worked out at 60 nM. Consider `O=C(NCc1ncc(F)cc1F)c1csc(CCNCCc2nc3cc(F)ccc3[nH]2)n1` [Example 123], for which the IC50 stood at 170 nM. `O=C(NCc1ncccc1F)c1nc(C2(O)CN(CCc3nc4ccccc4[nH]3)C2)sc1Cl` [Example 211]: the IC50 is 747 nM. Turning to `O=C(NCc1ncccc1F)c1coc(CCNCCc2nc3c(C(F)(F)F)cccc3[nH]2)n1` [Example 256], the IC50 was 81 nM.

Consider `O=C(NCc1ncccc1F)c1coc(CNCCc2nc3ccccc3[nH]2)n1` [Example 206], for which the IC50 was found to be 180 nM.

Take `O=C(NCc1ncccc1Cl)c1coc(CCNCCc2nc3ccccc3[nH]2)n1` [Example 173]: the half-inhibitory concentration (IC50) came to 6 nM. Regarding `O=C(NCc1ncccc1F)c1cn(CCNCCc2nc3ccccc3[nH]2)nc1C(F)(F)F` [Example 162], the IC50 came out at 297 nM.

The values above are taken from patent publication US10738041B2, “Ferroportin inhibitors” (Vifor (International) AG, priority 2015, dated 2020).
